Source: US11034742B2, “Peptides with antibiotic potential against Mycobacterium tuberculosis” (LINNANE PHARMA AB, priority 2017, dated 2021)
In brackets after ≈: the same amount, converted by molar mass. Positions of bridges follow the written chain, without caps; N, C: chain ends. Residues, ends and D or L forms follow the SMILES beside them.

Tested on: M. tuberculosis

In the case of `CC[C@H](C)[C@@H]1NC(=O)[C@H](CO)NC(=O)[C@H](CCCCN)NC(=O)[C@@H]2CSSC[C@@H](C(=O)N[C@@H](Cc3ccc(O)cc3)C(=O)O)NC(=O)[C@H](CCCCN)NC(=O)[C@@H]3CSSC[C@H](NC(=O)[C@H](CCC(N)=O)NC(=O)[C@H]([C@@H](C)CC)NC(=O)[C@H](CC(=O)O)NC(=O)[C@H](CC(=O)O)NC(=O)[C@H](CCC(=O)O)NC(=O)[C@H](CO)NC(=O)[C@H](Cc4c[nH]c5ccccc45)NC(=O)[C@@H]4CCCN4C(=O)CNC(=O)[C@H](CC(N)=O)NC(=O)[C@@H](NC(=O)CNC(=O)[C@H](Cc4ccccc4)NC(=O)CN)CSSC[C@H](NC(=O)[C@H](Cc4ccc(O)cc4)NC(=O)CNC(=O)CNC(=O)[C@H](CCCCN)NC(=O)[C@H](Cc4ccc(O)cc4)NC(=O)CNC(=O)[C@H](CCCCN)NC1=O)C(=O)N[C@@H](C)C(=O)N[C@@H](CCCNC(=N)N)C(=O)NCC(=O)NCC(=O)N[C@@H](Cc1ccccc1)C(=O)N[C@@H](C(C)C)C(=O)N3)C(=O)N[C@@H](Cc1c[nH]cn1)C(=O)N[C@@H](CC(N)=O)C(=O)N[C@@H](Cc1c[nH]cn1)C(=O)N2` [SEQ ID NO: 3] (H-GFGCNGPWSEDDIQCHNHCKSIKGYKGGYCARGGFVCKCY-OH; disulfide 4-30, 15-37, 19-39 (inferred); N-terminus and C-terminus assumed), the “MIC (mg/L)” value is reported as 27.5 mg/L (≈ 6.27 µM), the “MIC (μM)” value is reported as 6.8 µM (≈ 29.8 µg/mL) and the “mean concentration inhibiting 99% of bacterial growth” value is reported as 6.3 µM.
In the case of `CC[C@H](C)[C@@H]1NC(=O)[C@H](C)NC(=O)[C@@H]2CSSC[C@H](NC(=O)CNC(=O)[C@H](Cc3ccccc3)NC(=O)CN)C(=O)N[C@@H](CC(N)=O)C(=O)NCC(=O)N3CCC[C@H]3C(=O)N[C@@H](Cc3c[nH]c4ccccc34)C(=O)N[C@@H](CO)C(=O)N[C@@H](CCC(=O)O)C(=O)N[C@@H](CC(=O)O)C(=O)N[C@@H](CC(=O)O)C(=O)N[C@@H]([C@@H](C)CC)C(=O)N[C@@H](CCC(N)=O)C(=O)N[C@H]3CSSC[C@H](NC(=O)[C@H](C(C)C)NC(=O)[C@H](Cc4ccccc4)NC(=O)CNC(=O)CNC1=O)C(=O)N[C@@H](CCCCN)C(=O)N[C@H](C(=O)N[C@@H](Cc1ccc(O)cc1)C(=O)O)CSSC[C@H](NC(=O)[C@H](Cc1c[nH]cn1)NC(=O)[C@H](CC(N)=O)NC(=O)[C@H](Cc1c[nH]cn1)NC3=O)C(=O)N[C@@H](CCCCN)C(=O)N[C@@H](CO)C(=O)N[C@@H]([C@@H](C)CC)C(=O)N[C@@H](CCCCN)C(=O)NCC(=O)N[C@@H](Cc1ccc(O)cc1)C(=O)N[C@@H](CCCCN)C(=O)NCC(=O)NCC(=O)N[C@@H](Cc1ccc(O)cc1)C(=O)N2` [SEQ ID NO: 4] (H-GFGCNGPWSEDDIQCHNHCKSIKGYKGGYCAIGGFVCKCY-OH; disulfide 4-30, 15-37, 19-39 (inferred); N-terminus and C-terminus assumed), the “mean concentration inhibiting 99% of bacterial growth” value is reported as 6.3 µM.
